Results on ten molecules are retold here after ChEMBL document CHEMBL5528042, “Identification of Novel, Selective Ataxia-Telangiectasia Mutated Kinase Inhibitors with the Ability to Penetrate the Blood-Brain Barrier: The Discovery of AZD1390” (J Med Chem, 2024).

SMILES strings stand for the structures. ≈ marks a conversion by molar mass, not a printed value.

As usually defined, the solubility is the dissolved amount per volume that the medium holds. As a reminder, the logD is the decadic logarithm of the distribution of all forms, ionised or not, between an organic phase and buffer at a given pH. High values mean a more lipophilic compound, low ones a more hydrophilic compound. Usually pKa stands for the negative logarithm of the acid dissociation constant. Read a low pKa as a group that gives up its proton readily. The Papp A→B is how fast a substance crosses the layer from the apical side. The IC50 is the point on the concentration scale where inhibition reaches its midpoint. Low readings indicate higher potency, high ones lower potency.

Test system in the first series: not listed separately
Nature of the series: Aqueous solubility of the compound in pH 7.4. In kind it is physicochemical. The note with it: buffer.
Molecule `CC(C)n1c(=O)n(C)c2cnc3ccc(-c4ccc(OCCN(C)C)nc4)cc3c21` came in with a solubility of 421 µM (≈ 171 µg/mL).

`CC(C)n1c(=O)n(C)c2cnc3ccc(-c4ccc(N5CC[C@H](N(C)C)C5)nc4)cc3c21` showed a solubility of 137 µM (≈ 59 µg/mL). Against the preceding molecule, the solubility is about 3.1-fold lower.

Molecule `CC(C)n1c(=O)n(C)c2cnc3ccc(-c4ccc(N5CC6(CN(C)C6)C5)nc4)cc3c21` had a solubility of 928 µM (≈ 398 µg/mL).

`CO[C@H]1CC[C@H](n2c(=O)n(C)c3cnc4ccc(-c5ccc(OCCCN(C)C)cc5)cc4c32)C1`: the concentration in solution (solubility) came to 604 µM (≈ 287 µg/mL).

Molecule `CC(C)n1c(=O)n(C)c2cnc3cc(F)c(-c4ccc(N5CCN(C)CC5)nc4)cc3c21` came in with a solubility of 17 µM (≈ 7.39 µg/mL).

`CC(C)n1c(=O)n(C)c2cnc3cc(F)c(-c4ccc(N5CCC(N(C)C)CC5)nc4)cc3c21` came in with a solubility of 787 µM (≈ 364 µg/mL). This solubility lies about 46-fold higher than the previous one.

For the molecule `Cn1c(=O)n(C2CCOCC2)c2c3cc(-c4ccc(OCCCN5CCCCC5)cc4)ccc3ncc21`, the solubility is 88 µM (≈ 44.1 µg/mL).

The molecule `COCc1ccc(-c2ccc3ncc4c(c3c2)n([C@H]2C[C@@H](CO)C2)c(=O)n4C)cn1` yielded a solubility of 990 µM (≈ 400 µg/mL). This solubility is about 11-fold higher than that of the molecule before.

In the case of `CN(C)CCCOc1ccc(-c2ccc3ncc4c(c3c2)n([C@@H]2CCCOC2)c(=O)n4C)cc1`, the concentration in solution (solubility) came to 851 µM (≈ 392 µg/mL).

In the case of `COCc1ccc(-c2ccc3ncc4c(c3c2)n([C@@H]2CC[C@@H](OC)C2)c(=O)n4C)cn1` (relative stereo), the concentration in solution (solubility) was 789 µM (≈ 330 µg/mL).

Test system in a further series: not listed separately
Nature of the series: Lipophilicity, logD of the compound at pH 7.4. The note with it: buffer. In kind it is physicochemical.
For `CC(C)n1c(=O)n(C)c2cnc3ccc(-c4ccc(OCCN(C)C)nc4)cc3c21`, the logD is 2.1.

Molecule `CC(C)n1c(=O)n(C)c2cnc3ccc(-c4ccc(N5CC[C@H](N(C)C)C5)nc4)cc3c21` displayed a logD of 3.

In turn, `CC(C)n1c(=O)n(C)c2cnc3ccc(-c4ccc(N5CC6(CN(C)C6)C5)nc4)cc3c21` yielded a logD of 1.7.

Take `CO[C@H]1CC[C@H](n2c(=O)n(C)c3cnc4ccc(-c5ccc(OCCCN(C)C)cc5)cc4c32)C1`: the logD was determined as 2.7.

Take `CC(C)n1c(=O)n(C)c2cnc3cc(F)c(-c4ccc(N5CCN(C)CC5)nc4)cc3c21`: the logD is 3.2.

For the molecule `CC(C)n1c(=O)n(C)c2cnc3cc(F)c(-c4ccc(N5CCC(N(C)C)CC5)nc4)cc3c21`, the logD came out at 2.4.

Take `Cn1c(=O)n(C2CCOCC2)c2c3cc(-c4ccc(OCCCN5CCCCC5)cc4)ccc3ncc21`: the logD stood at 2.5.

Molecule `COCc1ccc(-c2ccc3ncc4c(c3c2)n([C@H]2C[C@@H](CO)C2)c(=O)n4C)cn1` registered a logD of 2.

Molecule `CN(C)CCCOc1ccc(-c2ccc3ncc4c(c3c2)n([C@@H]2CCCOC2)c(=O)n4C)cc1` registered a logD of 2.4.

Turning to `COCc1ccc(-c2ccc3ncc4c(c3c2)n([C@@H]2CC[C@@H](OC)C2)c(=O)n4C)cn1` (relative stereo), the log distribution coefficient (logD) is 3.

Test system in a further series: not listed separately
Nature of the series: Dissociation constant, pKa of compound. In kind it is physicochemical.
Conditions: not given
In turn, `CC(C)n1c(=O)n(C)c2cnc3cc(F)c(-c4ccc(N5CCN(C)CC5)nc4)cc3c21` returned a pKa of 7.8.

Take `CC(C)n1c(=O)n(C)c2cnc3cc(F)c(-c4ccc(N5CCC(N(C)C)CC5)nc4)cc3c21`: the pKa stood at 9.1.

Test system in the next series: not listed separately
Nature of the series: Apparent permeability across apical to basolateral side in dog MDCKII-MDR1 cells overexpressing BCRP at 1 uM incubated for 90 mins by LC-MS/MS analysis. In kind it is ADME, cell-based, Canis lupus familiaris, MDCK-MDR1.
Conditions: not given
In the case of `CC(C)n1c(=O)n(C)c2cnc3ccc(-c4ccc(OCCN(C)C)nc4)cc3c21`, the apparent permeability from apical to basolateral (Papp A→B) at […], 1 µM worked out at 52 ×10⁻⁶ cm/s.

Turning to `CC(C)n1c(=O)n(C)c2cnc3ccc(-c4ccc(N5CC[C@H](N(C)C)C5)nc4)cc3c21`, the Papp A→B at […], 1 µM is 22 ×10⁻⁶ cm/s.

For the molecule `CC(C)n1c(=O)n(C)c2cnc3ccc(-c4ccc(N5CC6(CN(C)C6)C5)nc4)cc3c21`, the Papp A→B at […], 1 µM came out at 6 ×10⁻⁶ cm/s.

Regarding `CO[C@H]1CC[C@H](n2c(=O)n(C)c3cnc4ccc(-c5ccc(OCCCN(C)C)cc5)cc4c32)C1`, the Papp A→B at […], 1 µM is 18 ×10⁻⁶ cm/s.

For `CC(C)n1c(=O)n(C)c2cnc3cc(F)c(-c4ccc(N5CCN(C)CC5)nc4)cc3c21`, the Papp A→B at […], 1 µM amounted to 19 ×10⁻⁶ cm/s.

Regarding `CC(C)n1c(=O)n(C)c2cnc3cc(F)c(-c4ccc(N5CCC(N(C)C)CC5)nc4)cc3c21`, the apparent permeability from apical to basolateral (Papp A→B) at […], 1 µM came out at 22 ×10⁻⁶ cm/s.

As to `Cn1c(=O)n(C2CCOCC2)c2c3cc(-c4ccc(OCCCN5CCCCC5)cc4)ccc3ncc21`, the Papp A→B at […], 1 µM was 13 ×10⁻⁶ cm/s.

For `COCc1ccc(-c2ccc3ncc4c(c3c2)n([C@H]2C[C@@H](CO)C2)c(=O)n4C)cn1`, the Papp A→B at […], 1 µM amounted to 3.2 ×10⁻⁶ cm/s.

Consider `CN(C)CCCOc1ccc(-c2ccc3ncc4c(c3c2)n([C@@H]2CCCOC2)c(=O)n4C)cc1`, for which the Papp A→B at […], 1 µM was 22 ×10⁻⁶ cm/s.

Take `COCc1ccc(-c2ccc3ncc4c(c3c2)n([C@@H]2CC[C@@H](OC)C2)c(=O)n4C)cn1` (relative stereo): the apparent permeability from apical to basolateral (Papp A→B) at […], 1 µM amounted to 24 ×10⁻⁶ cm/s.

Test system in another series: not listed separately
Nature of the series: Intrinsic clearance in rat hepatocyte assessed per 10^6 cells. In kind it is ADME, cell-based. The note with it: hepatocytes, read-out: CLH.
For the molecule `CC(C)n1c(=O)n(C)c2cnc3ccc(-c4ccc(OCCN(C)C)nc4)cc3c21`, the hepatocyte CLint was found to be 24 µL/min/1e6 cells.

For the molecule `CC(C)n1c(=O)n(C)c2cnc3ccc(-c4ccc(N5CC[C@H](N(C)C)C5)nc4)cc3c21`, the hepatocyte CLint was 25 µL/min/1e6 cells.

As to `CC(C)n1c(=O)n(C)c2cnc3ccc(-c4ccc(N5CC6(CN(C)C6)C5)nc4)cc3c21`, the hepatocyte CLint was determined as 2.4 µL/min/1e6 cells.

For the molecule `CO[C@H]1CC[C@H](n2c(=O)n(C)c3cnc4ccc(-c5ccc(OCCCN(C)C)cc5)cc4c32)C1`, the hepatocyte CLint is 8.7 µL/min/1e6 cells.

`CC(C)n1c(=O)n(C)c2cnc3cc(F)c(-c4ccc(N5CCN(C)CC5)nc4)cc3c21`: the hepatocyte CLint was 22 µL/min/1e6 cells.

As for `CC(C)n1c(=O)n(C)c2cnc3cc(F)c(-c4ccc(N5CCC(N(C)C)CC5)nc4)cc3c21`, the hepatocyte CLint was determined as 6.3 µL/min/1e6 cells.

Take `Cn1c(=O)n(C2CCOCC2)c2c3cc(-c4ccc(OCCCN5CCCCC5)cc4)ccc3ncc21`: the hepatocyte CLint is 5.3 µL/min/1e6 cells.

For the molecule `COCc1ccc(-c2ccc3ncc4c(c3c2)n([C@H]2C[C@@H](CO)C2)c(=O)n4C)cn1`, the hepatocyte CLint turned out to be 20 µL/min/1e6 cells.

Consider `CN(C)CCCOc1ccc(-c2ccc3ncc4c(c3c2)n([C@@H]2CCCOC2)c(=O)n4C)cc1`, for which the hepatocyte CLint was determined as 8.1 µL/min/1e6 cells.

Regarding `COCc1ccc(-c2ccc3ncc4c(c3c2)n([C@@H]2CC[C@@H](OC)C2)c(=O)n4C)cn1` (relative stereo), the hepatocyte CLint was 40 µL/min/1e6 cells.

In a further series the target is Serine/threonine-protein kinase ATR (Homo sapiens, UniProt Q13535). Nature of the series: Inhibition of ATR in human HT-29 cells incubated for 2 hrs by Alexa Fluor 488/Hoeschst staining based plate reader assay. The class given is cell-based.
Sequence of Serine/threonine-protein kinase ATR (Q13535 whole entry): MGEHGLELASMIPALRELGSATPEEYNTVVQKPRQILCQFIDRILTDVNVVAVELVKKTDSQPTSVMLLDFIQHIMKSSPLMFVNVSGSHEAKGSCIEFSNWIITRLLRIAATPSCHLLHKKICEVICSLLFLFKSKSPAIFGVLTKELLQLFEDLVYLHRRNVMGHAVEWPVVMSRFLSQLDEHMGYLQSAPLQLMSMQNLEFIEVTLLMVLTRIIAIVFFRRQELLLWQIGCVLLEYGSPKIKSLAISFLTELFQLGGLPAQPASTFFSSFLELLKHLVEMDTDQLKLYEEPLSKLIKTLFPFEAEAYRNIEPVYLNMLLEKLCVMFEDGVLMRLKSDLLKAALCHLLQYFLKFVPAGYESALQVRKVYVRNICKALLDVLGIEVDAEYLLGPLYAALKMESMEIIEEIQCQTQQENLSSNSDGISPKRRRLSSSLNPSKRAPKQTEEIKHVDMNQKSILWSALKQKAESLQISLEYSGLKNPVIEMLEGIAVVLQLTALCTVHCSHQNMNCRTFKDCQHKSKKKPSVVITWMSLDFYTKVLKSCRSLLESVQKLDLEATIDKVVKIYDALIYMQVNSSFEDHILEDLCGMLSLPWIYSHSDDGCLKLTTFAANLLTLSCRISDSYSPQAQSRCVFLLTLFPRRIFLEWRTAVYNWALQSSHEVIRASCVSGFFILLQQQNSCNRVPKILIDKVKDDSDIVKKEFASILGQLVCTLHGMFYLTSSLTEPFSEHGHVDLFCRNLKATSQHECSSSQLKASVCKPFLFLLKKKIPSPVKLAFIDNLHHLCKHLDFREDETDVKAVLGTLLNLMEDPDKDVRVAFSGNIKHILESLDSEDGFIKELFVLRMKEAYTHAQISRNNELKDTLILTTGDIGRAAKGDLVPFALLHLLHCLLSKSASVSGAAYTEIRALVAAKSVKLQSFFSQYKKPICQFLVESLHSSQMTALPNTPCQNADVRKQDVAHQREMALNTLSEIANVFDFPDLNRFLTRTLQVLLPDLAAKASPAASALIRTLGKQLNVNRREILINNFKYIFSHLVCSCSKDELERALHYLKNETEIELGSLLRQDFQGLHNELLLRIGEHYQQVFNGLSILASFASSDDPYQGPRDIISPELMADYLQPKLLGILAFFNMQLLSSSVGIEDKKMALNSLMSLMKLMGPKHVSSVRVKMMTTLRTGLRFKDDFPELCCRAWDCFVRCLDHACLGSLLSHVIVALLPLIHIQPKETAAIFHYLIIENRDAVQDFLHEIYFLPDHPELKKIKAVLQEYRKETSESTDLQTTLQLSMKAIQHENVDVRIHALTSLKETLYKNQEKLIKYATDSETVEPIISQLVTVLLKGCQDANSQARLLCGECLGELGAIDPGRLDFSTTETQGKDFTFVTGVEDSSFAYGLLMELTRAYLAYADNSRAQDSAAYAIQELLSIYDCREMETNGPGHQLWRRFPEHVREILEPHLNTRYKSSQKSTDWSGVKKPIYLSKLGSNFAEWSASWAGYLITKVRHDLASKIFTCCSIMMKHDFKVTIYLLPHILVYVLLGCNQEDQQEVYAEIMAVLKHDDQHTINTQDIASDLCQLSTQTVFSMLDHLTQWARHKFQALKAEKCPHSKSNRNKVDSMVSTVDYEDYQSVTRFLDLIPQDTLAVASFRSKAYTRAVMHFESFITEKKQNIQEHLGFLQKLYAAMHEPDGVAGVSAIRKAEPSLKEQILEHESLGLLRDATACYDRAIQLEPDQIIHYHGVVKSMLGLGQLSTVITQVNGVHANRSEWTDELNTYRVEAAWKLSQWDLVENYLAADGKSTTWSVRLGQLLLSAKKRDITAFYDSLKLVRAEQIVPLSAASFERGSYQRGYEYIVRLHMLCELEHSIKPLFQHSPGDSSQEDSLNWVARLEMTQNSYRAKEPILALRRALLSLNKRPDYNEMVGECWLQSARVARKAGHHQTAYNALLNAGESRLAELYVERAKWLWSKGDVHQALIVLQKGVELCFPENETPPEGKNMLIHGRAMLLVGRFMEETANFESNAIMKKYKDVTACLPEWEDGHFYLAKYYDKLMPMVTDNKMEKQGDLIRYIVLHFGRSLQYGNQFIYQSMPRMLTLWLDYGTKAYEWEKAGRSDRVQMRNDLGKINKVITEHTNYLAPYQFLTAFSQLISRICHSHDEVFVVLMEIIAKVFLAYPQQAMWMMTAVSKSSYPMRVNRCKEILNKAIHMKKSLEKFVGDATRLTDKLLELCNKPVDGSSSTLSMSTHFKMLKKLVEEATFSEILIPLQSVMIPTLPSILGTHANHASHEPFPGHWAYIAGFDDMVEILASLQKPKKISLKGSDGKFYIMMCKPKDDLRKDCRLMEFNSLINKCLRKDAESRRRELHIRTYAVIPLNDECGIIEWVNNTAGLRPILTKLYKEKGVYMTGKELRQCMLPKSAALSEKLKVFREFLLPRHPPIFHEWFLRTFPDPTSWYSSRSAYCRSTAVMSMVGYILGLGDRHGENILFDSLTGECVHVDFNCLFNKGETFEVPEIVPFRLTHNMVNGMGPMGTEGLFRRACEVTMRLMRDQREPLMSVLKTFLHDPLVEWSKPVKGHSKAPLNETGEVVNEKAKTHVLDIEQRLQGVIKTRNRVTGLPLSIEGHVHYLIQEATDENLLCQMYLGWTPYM
Conditions: not given
Regarding `CC(C)n1c(=O)n(C)c2cnc3ccc(-c4ccc(OCCN(C)C)nc4)cc3c21`, the IC50 is more than 25.1 µM.

The molecule `CC(C)n1c(=O)n(C)c2cnc3ccc(-c4ccc(N5CC6(CN(C)C6)C5)nc4)cc3c21` gave an IC50 of more than 31.6 µM.

For `CC(C)n1c(=O)n(C)c2cnc3cc(F)c(-c4ccc(N5CCN(C)CC5)nc4)cc3c21`, the concentration for half-maximal inhibition (IC50) was more than 31.6 µM.

The molecule `CC(C)n1c(=O)n(C)c2cnc3cc(F)c(-c4ccc(N5CCC(N(C)C)CC5)nc4)cc3c21` showed an IC50 of more than 31.6 µM.

Take `Cn1c(=O)n(C2CCOCC2)c2c3cc(-c4ccc(OCCCN5CCCCC5)cc4)ccc3ncc21`: the IC50 is more than 15.8 µM.

Take `CN(C)CCCOc1ccc(-c2ccc3ncc4c(c3c2)n([C@@H]2CCCOC2)c(=O)n4C)cc1`: the IC50 was more than 31.6 µM.

Test system in a further series: not listed separately
Nature of the series: Apparent permeability across apical to basolateral side in dog MDCKII-MDR1 cells overexpressing BCRP at 0.1 uM incubated for 90 mins by LC-MS/MS analysis.
Conditions: not given
The class given is ADME, cell-based, Canis lupus familiaris, MDCK-MDR1.
As for `CO[C@H]1CC[C@H](n2c(=O)n(C)c3cnc4ccc(-c5ccc(OCCCN(C)C)cc5)cc4c32)C1`, the Papp A→B at […], 0.1 µM was determined as 9.7 ×10⁻⁶ cm/s.

Turning to `CC(C)n1c(=O)n(C)c2cnc3cc(F)c(-c4ccc(N5CCN(C)CC5)nc4)cc3c21`, the Papp A→B at […], 0.1 µM came to 17 ×10⁻⁶ cm/s.

With `CC(C)n1c(=O)n(C)c2cnc3cc(F)c(-c4ccc(N5CCC(N(C)C)CC5)nc4)cc3c21`, the Papp A→B at […], 0.1 µM came to 9.4 ×10⁻⁶ cm/s.

For the molecule `Cn1c(=O)n(C2CCOCC2)c2c3cc(-c4ccc(OCCCN5CCCCC5)cc4)ccc3ncc21`, the Papp A→B at […], 0.1 µM came out at 7.5 ×10⁻⁶ cm/s.

On to `CN(C)CCCOc1ccc(-c2ccc3ncc4c(c3c2)n([C@@H]2CCCOC2)c(=O)n4C)cc1`, for which the Papp A→B at […], 0.1 µM came to 9.7 ×10⁻⁶ cm/s.

With `COCc1ccc(-c2ccc3ncc4c(c3c2)n([C@@H]2CC[C@@H](OC)C2)c(=O)n4C)cn1` (relative stereo), the Papp A→B at […], 0.1 µM was determined as 37 ×10⁻⁶ cm/s.

Test system in a further series: not listed separately
Nature of the series: Intrinsic clearance in human hepatocyte assessed per 10^6 cells. In kind it is ADME, cell-based. The conditions noted are these: hepatocytes, read-out: CLH.
Regarding `CC(C)n1c(=O)n(C)c2cnc3ccc(-c4ccc(OCCN(C)C)nc4)cc3c21`, the hepatocyte CLint was determined as 6.1 µL/min/1e6 cells.

In the case of `CC(C)n1c(=O)n(C)c2cnc3ccc(-c4ccc(N5CC[C@H](N(C)C)C5)nc4)cc3c21`, the hepatocyte CLint is 3.8 µL/min/1e6 cells.

Regarding `CC(C)n1c(=O)n(C)c2cnc3ccc(-c4ccc(N5CC6(CN(C)C6)C5)nc4)cc3c21`, the hepatocyte CLint was less than 1 µL/min/1e6 cells.

On to `CO[C@H]1CC[C@H](n2c(=O)n(C)c3cnc4ccc(-c5ccc(OCCCN(C)C)cc5)cc4c32)C1`, for which the hepatocyte CLint came to 8.7 µL/min/1e6 cells.

On to `CC(C)n1c(=O)n(C)c2cnc3cc(F)c(-c4ccc(N5CCN(C)CC5)nc4)cc3c21`, for which the hepatocyte CLint stood at 6.5 µL/min/1e6 cells.

In the case of `CC(C)n1c(=O)n(C)c2cnc3cc(F)c(-c4ccc(N5CCC(N(C)C)CC5)nc4)cc3c21`, the hepatocyte CLint was determined as 2.4 µL/min/1e6 cells.

On to `Cn1c(=O)n(C2CCOCC2)c2c3cc(-c4ccc(OCCCN5CCCCC5)cc4)ccc3ncc21`, for which the hepatocyte CLint came to 2.9 µL/min/1e6 cells.

`COCc1ccc(-c2ccc3ncc4c(c3c2)n([C@H]2C[C@@H](CO)C2)c(=O)n4C)cn1`: the hepatocyte CLint is 3.5 µL/min/1e6 cells.

In the case of `CN(C)CCCOc1ccc(-c2ccc3ncc4c(c3c2)n([C@@H]2CCCOC2)c(=O)n4C)cc1`, the hepatocyte CLint was 7.9 µL/min/1e6 cells.

Regarding `COCc1ccc(-c2ccc3ncc4c(c3c2)n([C@@H]2CC[C@@H](OC)C2)c(=O)n4C)cn1` (relative stereo), the hepatocyte CLint turned out to be 5.3 µL/min/1e6 cells.
